# Data taken from patent publication US20240189291A1, “Prevention And Treatment Of Atrial Fibrillation/Flutter With Gamma-Ketoaldehyde Scavengers” (Vanderbilt University, priority 2016, published 2024).
# Where “and” joins values, the source holds several entries; their conditions need not be identical. Identical values can stand only once. Entries after “also recorded” stand apart in the source; their conditions may differ. Like-named read-outs stand apart in the source and are kept apart here.
# Tests used:
# COX2 = biological target: T1, COX2 (Homo sapiens, UniProt P35354); conditions: cited from earlier work
# T1 sequence (P35354 18-604): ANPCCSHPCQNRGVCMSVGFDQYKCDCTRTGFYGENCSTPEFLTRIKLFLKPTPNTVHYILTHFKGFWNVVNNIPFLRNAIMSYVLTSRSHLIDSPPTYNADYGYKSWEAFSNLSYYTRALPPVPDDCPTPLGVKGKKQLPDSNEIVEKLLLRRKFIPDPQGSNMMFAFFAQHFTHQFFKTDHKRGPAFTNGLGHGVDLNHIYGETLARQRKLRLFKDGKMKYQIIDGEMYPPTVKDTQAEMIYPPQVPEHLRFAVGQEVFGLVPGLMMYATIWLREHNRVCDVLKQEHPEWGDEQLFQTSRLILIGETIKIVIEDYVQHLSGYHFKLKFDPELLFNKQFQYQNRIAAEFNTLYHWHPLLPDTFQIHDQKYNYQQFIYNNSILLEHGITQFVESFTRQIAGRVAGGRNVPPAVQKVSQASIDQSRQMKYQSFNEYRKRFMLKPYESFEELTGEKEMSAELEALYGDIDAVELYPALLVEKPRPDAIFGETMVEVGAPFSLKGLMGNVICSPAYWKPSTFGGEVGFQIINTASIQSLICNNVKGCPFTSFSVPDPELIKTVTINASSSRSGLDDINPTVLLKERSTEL
# [1] = tested on: mice fed a high-fat diet (HFD); test: Mouse model of diet-induced obesity (DIO) with inducible AF; format: in vivo; conditions: 12 weeks, co-treatment
# Text: Experimental obesity: Evidence for IsoLGs in AF susceptibility. Given that obesity is also linked to inflammation and oxidative stress, we have begun studies to investigate the role of IsoLGs in a mouse model of diet-induced obesity (DIO). […] Thus, in the early stages of both HTN and obesity, the present inventors show a role for IsoLGs in the AF substrate. In both HTN and obesity, AF was inducible in the absence of fibrosis, with reversibility in HTN. These findings imply that IsoLGs constitute an early pathologic target, and that their inhibition could potentially prevent the development of AF. In the proposed studies, we will confirm the critical role of IsoLGs using rigorous experimental approaches. For these studies, we use well-characterized murine models of HTN and obesity described above and routinely employed.
# The following data are for 12 week-treated animals.
# atrial HL-1 cells [2] = test: Rapid pacing of cultured atrial HL-1 cells (cellular model simulating AF); format: cell-based
# Text: Protein oligomers and IsoLGs in a cellular model simulating AF. […] Moreover, exposure of unpaced cells to a physiologic concentration of IsoLGs caused cytosolic PAO production, similar to that observed with rapid pacing (FIG. 4, top panels).
# IsoLGs = conditions: cited from earlier work
# [3] = in vitro studies, in vivo studies in mice, pre-clinical toxicology studies; cited from earlier work
# [4] = tested on: hypertensive (ang II) mice; test: Murine model of ang II-mediated hypertension with inducible AF; format: in vivo; conditions: for AF burden / AF susceptibility (total inducible AF): 2-HOBA and 4-HOBA 1G/L in drinking water
# Text: Experimental hypertension: Evidence for IsoLGs in AF susceptibility. Oxidative stress and PAO burden in human atrium are linked to HTN. […] The present inventors have determined that IsoLGs are mediators for AF susceptibility in HTN using a murine model (2 wk mini-pump infusion of angiotensin II [ang II]), in which mice develop sustained HTN and inducible AF. […] Importantly, mass spectrometry data have confirmed this finding (FIG. 5B), with a striking 100 fold increase in atrial adduct formation during HTN (2-3 fold greater increase than that seen in Alzheimer's brain). In addition, PAOs accumulated in the atria of hypertensive compared to control mice (FIGS. 5C and D). […] As expected, hypertensive mice developed inducible AF compared to control (FIG. 7). […] Normalization of BP in ang II-treated mice with hydralazine/HCTZ prevented AF susceptibility, while mechanical stretch of atrial myocytes generated both LG adducts (FIG. 9) and PAOs (not shown), signifying a critical role of atriomyocyte stretch. The AF substrate was reversible by 2 wks after stopping ang II (85% reduction in total AF burden), with partial normalization of BP (74%; n=13, data not shown). Of note, 2-HOBA had no effects on any ECG parameters in HTN mice.
# COX1 = COX1 (Homo sapiens, UniProt P23219); conditions: cited from earlier work
# [5] = tested on: mouse model of Alzheimer's disease; conditions: cited from earlier work
# [6] = tested on: hypertensive (ang II) mice; conditions: ang II-mediated HTN in mice, earlier work (Kirabo and colleagues), cited from earlier work
# ROS = conditions: cited from earlier work
# atrial HL-1 cells [7] = test: Cytotoxicity of ANP oligomers to atrial HL-1 cells (ATP production); format: cell-based; conditions: peptide oligomers, 24 hr exposure; listed as ANP oligomers
# Experimental: Mutant ANP is highly fibrillogenic, generating cytotoxic PAOs. To compare oligomer formation between WT and mutant ANP, Western analysis was performed on peptides allowed to oligomerize at 23° C. for variable time points. […] For amyloid β1-42, oligomer toxicity is a transient, time-dependent phenomenon, in the progression from monomers to PAOs to fibrils. To investigate this process for WT and mutant ANP, peptides incubated in vitro to generate oligomers over different time periods were incubated with atrial HL-1 cells for 24 hr. For WT ANP, proteotoxicity (manifested by decreased cellular ATP production) was maximal for PAOs generated during a 2 wk incubation, while for mutant ANP, the time point of maximal oligomer cytotoxicity occurred much earlier, within ˜3 d (FIG. 14). Cytotoxicity was confirmed by measuring cellular oxygen consumption rate using extracellular flux analysis (Seahorse Bioscience XFE96). Thus, oligomers formed by both WT and mutant ANP cause atrial myocyte dysfunction, as evidenced by reduced cardiomyocyte ATP production, with proteotoxicity occurring earlier for mutant compared to WT ANP, consistent with accelerated oligomer formation.
# [8] = rapidly paced atrial HL-1 cells in presence of compound
# [9] = ang II-treated hypertensive mice, 1G/L in drinking water
# [10] = ang II-treated hypertensive mice
# Sequence of COX1 (P23219 24-599): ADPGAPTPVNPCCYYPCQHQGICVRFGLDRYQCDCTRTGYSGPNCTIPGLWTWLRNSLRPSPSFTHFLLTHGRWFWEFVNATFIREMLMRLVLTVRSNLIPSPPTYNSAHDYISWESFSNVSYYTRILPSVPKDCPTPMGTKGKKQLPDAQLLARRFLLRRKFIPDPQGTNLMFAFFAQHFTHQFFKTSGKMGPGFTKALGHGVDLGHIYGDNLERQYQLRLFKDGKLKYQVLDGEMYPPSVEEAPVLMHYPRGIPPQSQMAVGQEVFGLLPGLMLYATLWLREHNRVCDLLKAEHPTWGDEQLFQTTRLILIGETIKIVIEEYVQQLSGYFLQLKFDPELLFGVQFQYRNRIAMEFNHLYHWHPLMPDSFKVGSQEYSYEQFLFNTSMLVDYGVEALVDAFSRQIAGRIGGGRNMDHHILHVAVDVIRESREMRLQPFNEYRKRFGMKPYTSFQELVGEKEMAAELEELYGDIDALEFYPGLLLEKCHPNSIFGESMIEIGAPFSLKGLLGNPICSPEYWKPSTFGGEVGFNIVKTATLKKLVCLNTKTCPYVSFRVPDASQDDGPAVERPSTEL
compound,measurement,setting,value
"NCc1ccccc1O [2-HOBA, 2-hydroxybenzylamine]",inhibition of COX2 enzyme,COX2,does not inhibit
same,AF burden (total inducible AF),[1],suppressed and markedly suppressed and 2-HOBA reduces
same,PAO formation,atrial HL-1 cells [2]; [8],virtually eliminated and 2-HOBA prevents
same,myocyte stress response (transcriptional upregulation of Nppb and Hspa1a),atrial HL-1 cells [2]; [8],blunted
same,isoLG adducts,atrial HL-1 cells [2]; rapidly-beating atrial cell model,2-HOBA prevents
same,dicarbonyl scavenging activity,IsoLGs,can also scavenge other injurious lipid dicarbonyl compounds such as MDA
same,rate of reaction with IsoLGs compared to IsoLG binding to the ε-amine of lysine,IsoLGs,much more rapid rate (by several orders of magnitude)
same,safety profile,[3],excellent safety profile
same,ECG parameters,[4]; HTN mice,no effects
same,atrial IsoLG adducts,[4]; [9],prevents and markedly reduced and 2-HOBA reduces
same,atrial PAO formation,[4]; [9],prevents and markedly reduced and 2-HOBA reduces
same,AF burden / AF susceptibility (total inducible AF),[4]; [10],suppressed and markedly reduced and 2-HOBA reduces
same,inhibition of COX1 enzyme,COX1,does not inhibit
same,development of cognitive impairment / therapeutic benefit,[5],prevent
same,development of cognitive impairment / therapeutic benefit,[5]; listed as salicylamine,remarkable therapeutic benefit
same,blood pressure / antihypertensive effect,[6],effectively lowered; also recorded: prominent antihypertensive effect
same,blood pressure / antihypertensive effect,[6]; listed as salicylamine,remarkable therapeutic benefit
same,ROS levels,ROS,does not reduce ROS levels significantly
same,concentrations of O2·− or F2-Isoprostanes,ROS; during in vitro oxidation,do not affect
"NCc1ccc(O)cc1 [4-HOBA, reference compound]",AF burden (total inducible AF),[1],had no effect; also recorded: did not
same,dicarbonyl scavenging activity,IsoLGs,cannot scavenge dicarbonyls
same,AF burden / AF susceptibility (total inducible AF),[4]; [10],had no effect
"WT ANP: wild-type atrial natriuretic peptide (28 amino acids), incubated to form oligomers",cytotoxicity (ATP production by atrial HL-1 cells),atrial HL-1 cells [7],reduced ATP production; also recorded: cytotoxic
"hydralazine/hydrocholorothiazide [hydralazine/HCTZ, reference compound]",AF burden / AF susceptibility (total inducible AF),[4]; [10],prevented
same,blood pressure (BP),[4]; ang II-treated mice,Normalization
